In patent publication US4157399A, “Benzo(B)thiophenes” (Parcor, priority 1976, dated 1979):
Where a name gives a salt, the structure may show the parent alone.

How the values were obtained:
Format in all cases: in vivo
[1] = Propylthiouracil test, free and total cholesterol in the rat; details: 11th day; propylthiouracil-treated rats; oral 100 mg/Kg
Method: Experiments were carried out according to the propylthiouracil test (RANNEY & Coll., J. PHARMACOL. EXPER. THERAP. 1963, 142, 132-136). The propyl-thiouracil administered to adult rats has the property of making them hypercholesterolemic: the plasma level of cholesterol increases by approximately 15% under these conditions. Experiments are conducted on various batches of rats, the control batch receiving only propylthiouracil and the other treated batches also receiving the composition of the invention at an oral dose of 100 mg/Kg.
On the 11th day of experimentation blood samples are taken and the free cholesterol and total cholesterol is dosed.

[2] = tested on: fatty infiltrations of the liver; assay: Rabbit autopsy, mark for fatty infiltrations of the liver; details: mark of 0 to 3; end of test (75 days); 100 mg/Kg orally
Method: (§1) The animals divided into several batches of 15 animals are fed with feedstuff enriched in cholesterol (1%). Batch A serves as control and is not treated, the other batches also receive the derivatives to be tested at a dose of 100 mg/Kg, administered orally, suspended in aqueous solution of gum arabic at 5%. On the first day of experimentation and then every 15 days for 75 days biological examinations are conducted on all the animals, during which the various elements causing dyslipemia are dosed; total cholesterol (T), esterified cholesterol (E), free cholesterol (L), esterification ratio (E/T), Kunkel-Phenol test (K1), Kunkelphenol test (K2), Burstein dextrane test (B) and serum lipids (LS).
(§2) At the end of the test all the animals are killed and an autopsy is carried out; a macroscopic examination is then conducted on the livers and aortas and a mark of 0 to 3 is given to the amount of fatty infiltrations of the liver and 0 to 4 to the intensity of aortic atheromatous lesions.

[3] = Rabbit fed cholesterol-enriched (1%) feedstuff, dosage of elements causing dyslipemia; design: total cholesterol (T) / esterified cholesterol (E) / Kunkelphenol test (K2) / Burstein dextrane test (B) / serum lipids (LS): unit not given here; details: 100 mg/Kg orally
Method: as §1

[4] = tested on: aortic atheromatous lesions; assay: Rabbit autopsy, mark for aortic atheromatous lesions; details: mark of 0 to 4; end of test (75 days); 100 mg/Kg orally
Method: as §1, §2

SMILES | Free cholesterol [1] | Total cholesterol [1] | fatty infiltrations of the liver [2] | Burstein dextrane test (B) ([3]; 1st day) | Kunkel-Phenol test (K1) ([3]; 1st day) | Kunkelphenol test (K2) ([3]; 1st day) | esterification ratio (E/T) ([3]; 1st day) | esterified cholesterol (E) ([3]; 1st day) | free cholesterol (L) ([3]; 1st day) | serum lipids (LS) ([3]; 1st day) | total cholesterol (T) ([3]; 1st day) | Burstein dextrane test (B) ([3]; 30th day) | Kunkel-Phenol test (K1) ([3]; 30th day) | Kunkelphenol test (K2) ([3]; 30th day) | esterification ratio (E/T) ([3]; 30th day) | esterified cholesterol (E) ([3]; 30th day) | free cholesterol (L) ([3]; 30th day) | serum lipids (LS) ([3]; 30th day) | total cholesterol (T) ([3]; 30th day) | Burstein dextrane test (B) ([3]; 75th day) | further results
c1ccc(CN(Cc2ccccc2)c2c(-c3ccccc3)sc3ccccc23)cc1 [derivative 19, 3-dibenzylamino-2-phenyl-benzo(b)thiophene] | 0,14 g/l | 0,58 g/l | 1,2 | 10,9 | 8,0 | 13,1 | 0,50 | 0,28 | 0,29 | 1,97 | 0,57 | 2,3 | 18,4 | 25,3 | 0,64 | 0,95 | 0,52 | 2,84 | 1,47 | 36,1 | Kunkel-Phenol test (K1) ([3]; 75th day): 33,5; Kunkelphenol test (K2) ([3]; 75th day): 46,5; esterification ratio (E/T) ([3]; 75th day): 0,61; esterified cholesterol (E) ([3]; 75th day): 1,79; free cholesterol (L) ([3]; 75th day): 1,12; serum lipids (LS) ([3]; 75th day): 4,08; total cholesterol (T) ([3]; 75th day): 2,91; aortic atheromatons lesions [4]: 1,3
CCN(CC)c1c(-c2ccc(Cl)cc2)sc2ccccc12 [derivative 37, Hydrochloride of 2-(4-chlorophenyl)-3-diethylamino-benzo(b)thiophene] | 0,13 g/l | 0,58 g/l | 1,00 | 10,5 | 8,2 | 12,9 | 0,47 | 0,27 | 0,30 | 2,00 | 0,57 | 21,3 | 18,8 | 25,1 | 0,62 | 0,97 | 0,58 | 2,85 | 1,55 | 35,7 | Kunkel-Phenol test (K1) ([3]; 75th day): 32,8; Kunkelphenol test (K2) ([3]; 75th day): 46,7; esterification ratio (E/T) ([3]; 75th day): 0,61; esterified cholesterol (E) ([3]; 75th day): 1,80; free cholesterol (L) ([3]; 75th day): 1,14; serum lipids (LS) ([3]; 75th day): 4,15; total cholesterol (T) ([3]; 75th day): 2,94; aortic atheromatons lesions [4]: 1,3
c1ccc(CN2CCN(c3c(-c4ccccc4)sc4ccccc34)CC2)cc1 [derivative 24, 3-(4-benzylpiperazino)-2-phenyl-benzo(b) thiophene] | 0,14 g/l | 0,56 g/l | 1,00 | 10,8 | 8,2 | 13,0 | 0,50 | 0,28 | 0,27 | 2,00 | 0,55 | 2,1 | 18,8 | 25,3 | 0,65 | 0,98 | 0,52 | 2,87 | 1,50 | 35,2 | Kunkel-Phenol test (K1) ([3]; 75th day): 32,9; Kunkelphenol test (K2) ([3]; 75th day): 48,2; esterification ratio (E/T) ([3]; 75th day): 0,61; esterified cholesterol (E) ([3]; 75th day): 1,80; free cholesterol (L) ([3]; 75th day): 1,11; serum lipids (LS) ([3]; 75th day): 3,98; total cholesterol (T) ([3]; 75th day): 2,91; aortic atheromatons lesions [4]: 1,4
CN(C)c1c(-c2ccccc2)sc2ccccc12 [derivative 29, 3-dimethylamino-2-phenyl-benzo(b)thiophene] | 0,12 g/l | 0,50 g/l | 0,8 | 10,7 | 7,8 | 12,7 | 0,46 | 0,27 | 0,28 | 1,95 | 0,58 | 21,00 | 18,4 | 24,9 | 0,60 | 0,89 | 0,59 | 2,83 | 1,48 | 35,1 | Kunkel-Phenol test (K1) ([3]; 75th day): 32,6; Kunkelphenol test (K2) ([3]; 75th day): 41,5; esterification ratio (E/T) ([3]; 75th day): 0,60; esterified cholesterol (E) ([3]; 75th day): 1,75; free cholesterol (L) ([3]; 75th day): 1,15; serum lipids (LS) ([3]; 75th day): 3,95; total cholesterol (T) ([3]; 75th day): 2,90; aortic atheromatons lesions [4]: 1,1
c1ccc(CNc2c(-c3ccccc3)sc3ccccc23)cc1 [derivative n° 1, 3-benzylamino-2-phenyl-benzo(b)thiophene] | 0,15 g/l | 0,61 g/l | 1,1 | 10,8 | 7,9 | 12,8 | 0,53 | 0,28 | 0,24 | 1,98 | 0,52 | 21,3 | 18,8 | 25,7 | 0,63 | 0,95 | 0,55 | 2,9 | 1,50 | 36,2 | Kunkel-Phenol test (K1) ([3]; 75th day): 33,3; Kunkelphenol test (K2) ([3]; 75th day): 44,2; esterification ratio (E/T) ([3]; 75th day): 0,62; esterified cholesterol (E) ([3]; 75th day): 1,84; free cholesterol (L) ([3]; 75th day): 1,12; serum lipids (LS) ([3]; 75th day): 4,18; total cholesterol (T) ([3]; 75th day): 2,96; aortic atheromatons lesions [4]: 1,6
CCCCN(C)c1c(-c2ccc(OC)cc2)sc2ccccc12 [derivative 42, 3-(N-butyl,N-methylamino)-2-(4-methoxyphenyl)-benzo(b)thiophene] | 0,12 g/l | 0,54 g/l | 0,9 | 11,2 | 8,1 | 13,7 | 0,50 | 0,26 | 0,25 | 2,05 | 0,51 | 21,2 | 18,9 | 25,5 | 0,62 | 0,90 | 0,55 | 2,91 | 1,45 | 35,4 | Kunkel-Phenol test (K1) ([3]; 75th day): 33,2; Kunkelphenol test (K2) ([3]; 75th day): 45,0; esterification ratio (E/T) ([3]; 75th day): 0,61; esterified cholesterol (E) ([3]; 75th day): 1,85; free cholesterol (L) ([3]; 75th day): 1,09; serum lipids (LS) ([3]; 75th day): 4,05; total cholesterol (T) ([3]; 75th day): 2,94; aortic atheromatons lesions [4]: 1,5
